Source: patent US11981658B2, “Substituted aminopyridine compounds as EGFR inhibitors” (YUHAN CORPORATION, priority 2021, dated 2024)
Where two headings read alike, the source gives them in different places.

Tests used:
[1] = target: EGFR Del19/T790M/C797S (Homo sapiens, UniProt P00533, C797S/DEL746-750/T790M); experiment: Biochemical EGFR kinase inhibition assay (Lance Ultra TR-FRET), triple mutant del19/T790M/C797S
Summary of the method: (§1)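 Enzyme reactions lasted 1 hour at room temperature with test compounds between 0.003 and 10 μM, followed by 10 mM EDTA quench.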

[2] = target: EGFR L858R/T790M/C797S (Homo sapiens, UniProt P00533, C797S/L858R/T790M); experiment: Biochemical EGFR kinase inhibition assay (Lance Ultra TR-FRET), triple mutant L858R/T790M/C797S
Summary of the method: as §1

[3] = target: EGFR Del19/C797S (Homo sapiens, UniProt P00533, C797S/DEL746-750); experiment: Biochemical EGFR kinase inhibition assay (Lance Ultra TR-FRET), double mutant del19/C797S
Summary of the method: as §1

[4] = target: EGFR L858R/C797S (Homo sapiens, UniProt P00533, C797S/L858R); experiment: Biochemical EGFR kinase inhibition assay (Lance Ultra TR-FRET), double mutant L858R/C797S
Summary of the method: as §1

[5] = target: EGFR wildtype (WT) (Homo sapiens, UniProt P00533); experiment: Biochemical EGFR kinase inhibition assay (Lance Ultra TR-FRET), wildtype
Summary of the method: as §1

[6] = IC50 Del19/T790M/C797S (nM), 100 μM ATP
[7] = Km ATP, read-out: IC50 Del19/T790M/C797S (nM) Km ATP
[8] = IC50 L858R/T790M/C797S (nM), 100 μM ATP
[9] = Km ATP, read-out: IC50 L858R/T790M/C797S (nM) Km ATP
[10] = IC50 Del19/C797S (nM), 100 μM ATP
[11] = Km ATP, read-out: IC50 Del19/C797S (nM) Km ATP
[12] = IC50 L858R/C797S (nM), 100 μM ATP
[13] = Km ATP, read-out: IC50 L858R/C797S (nM) Km ATP
[14] = Km ATP, read-out: IC50 WT (nM) Km ATP
[15] = Km ATP, read-out: IC50 Del19/T790M/C797S (nM), Km ATP
[16] = Km ATP, read-out: IC50 L858R/T790M/C797S (nM), Km ATP
[17] = Km ATP, read-out: IC50 Del19/C797S (nM), Km ATP
[18] = Km ATP, read-out: IC50 L858R/C797S (nM), Km ATP
[19] = Km ATP, read-out: IC50 WT (nM), Km ATP
[20] = ATP at Km, read-out: IC50 Del19/T790M/C797S (nM), Km ATP
[21] = ATP at Km, read-out: IC50 L858R/T790M/C797S (nM), Km ATP
[22] = ATP at Km, read-out: IC50 Del19/C797S (nM), Km ATP
[23] = ATP at Km, read-out: IC50 L858R/C797S (nM), Km ATP
[24] = ATP at Km, read-out: IC50 WT (nM), Km ATP

EGFR L858R/C797S, sequence (P00533 25-1210 C797S/L858R): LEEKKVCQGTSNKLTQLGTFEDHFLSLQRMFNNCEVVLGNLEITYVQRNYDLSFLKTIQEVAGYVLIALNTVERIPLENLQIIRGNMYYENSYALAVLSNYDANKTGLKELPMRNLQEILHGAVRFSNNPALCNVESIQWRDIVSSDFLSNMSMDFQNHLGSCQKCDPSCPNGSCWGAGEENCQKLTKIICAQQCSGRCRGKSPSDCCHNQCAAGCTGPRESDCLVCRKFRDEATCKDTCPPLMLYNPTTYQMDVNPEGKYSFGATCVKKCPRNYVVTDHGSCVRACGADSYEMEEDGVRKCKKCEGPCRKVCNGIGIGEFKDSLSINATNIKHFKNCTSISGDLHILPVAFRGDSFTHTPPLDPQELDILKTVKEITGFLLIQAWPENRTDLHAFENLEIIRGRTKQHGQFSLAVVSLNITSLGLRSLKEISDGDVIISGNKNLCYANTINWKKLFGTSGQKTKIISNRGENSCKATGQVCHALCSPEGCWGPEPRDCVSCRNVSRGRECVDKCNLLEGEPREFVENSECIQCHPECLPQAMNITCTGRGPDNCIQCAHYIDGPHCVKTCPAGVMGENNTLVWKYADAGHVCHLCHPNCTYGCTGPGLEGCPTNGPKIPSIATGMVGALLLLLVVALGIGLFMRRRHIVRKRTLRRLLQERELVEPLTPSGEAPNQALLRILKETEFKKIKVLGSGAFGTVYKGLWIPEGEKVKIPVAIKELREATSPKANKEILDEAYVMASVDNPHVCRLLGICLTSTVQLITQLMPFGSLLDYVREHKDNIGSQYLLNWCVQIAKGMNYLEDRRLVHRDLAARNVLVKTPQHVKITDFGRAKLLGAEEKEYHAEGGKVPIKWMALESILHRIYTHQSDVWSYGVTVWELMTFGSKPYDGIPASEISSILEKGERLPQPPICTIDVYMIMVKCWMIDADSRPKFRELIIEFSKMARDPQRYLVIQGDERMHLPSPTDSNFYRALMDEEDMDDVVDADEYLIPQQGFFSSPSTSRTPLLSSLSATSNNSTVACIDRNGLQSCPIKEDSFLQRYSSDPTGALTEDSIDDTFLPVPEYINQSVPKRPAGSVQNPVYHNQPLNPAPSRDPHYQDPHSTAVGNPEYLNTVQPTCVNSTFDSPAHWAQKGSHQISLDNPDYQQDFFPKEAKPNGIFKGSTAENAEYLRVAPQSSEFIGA
EGFR Del19/T790M/C797S, sequence (P00533 with tags, fused parts or gaps DEL746-750/T790M/C797S): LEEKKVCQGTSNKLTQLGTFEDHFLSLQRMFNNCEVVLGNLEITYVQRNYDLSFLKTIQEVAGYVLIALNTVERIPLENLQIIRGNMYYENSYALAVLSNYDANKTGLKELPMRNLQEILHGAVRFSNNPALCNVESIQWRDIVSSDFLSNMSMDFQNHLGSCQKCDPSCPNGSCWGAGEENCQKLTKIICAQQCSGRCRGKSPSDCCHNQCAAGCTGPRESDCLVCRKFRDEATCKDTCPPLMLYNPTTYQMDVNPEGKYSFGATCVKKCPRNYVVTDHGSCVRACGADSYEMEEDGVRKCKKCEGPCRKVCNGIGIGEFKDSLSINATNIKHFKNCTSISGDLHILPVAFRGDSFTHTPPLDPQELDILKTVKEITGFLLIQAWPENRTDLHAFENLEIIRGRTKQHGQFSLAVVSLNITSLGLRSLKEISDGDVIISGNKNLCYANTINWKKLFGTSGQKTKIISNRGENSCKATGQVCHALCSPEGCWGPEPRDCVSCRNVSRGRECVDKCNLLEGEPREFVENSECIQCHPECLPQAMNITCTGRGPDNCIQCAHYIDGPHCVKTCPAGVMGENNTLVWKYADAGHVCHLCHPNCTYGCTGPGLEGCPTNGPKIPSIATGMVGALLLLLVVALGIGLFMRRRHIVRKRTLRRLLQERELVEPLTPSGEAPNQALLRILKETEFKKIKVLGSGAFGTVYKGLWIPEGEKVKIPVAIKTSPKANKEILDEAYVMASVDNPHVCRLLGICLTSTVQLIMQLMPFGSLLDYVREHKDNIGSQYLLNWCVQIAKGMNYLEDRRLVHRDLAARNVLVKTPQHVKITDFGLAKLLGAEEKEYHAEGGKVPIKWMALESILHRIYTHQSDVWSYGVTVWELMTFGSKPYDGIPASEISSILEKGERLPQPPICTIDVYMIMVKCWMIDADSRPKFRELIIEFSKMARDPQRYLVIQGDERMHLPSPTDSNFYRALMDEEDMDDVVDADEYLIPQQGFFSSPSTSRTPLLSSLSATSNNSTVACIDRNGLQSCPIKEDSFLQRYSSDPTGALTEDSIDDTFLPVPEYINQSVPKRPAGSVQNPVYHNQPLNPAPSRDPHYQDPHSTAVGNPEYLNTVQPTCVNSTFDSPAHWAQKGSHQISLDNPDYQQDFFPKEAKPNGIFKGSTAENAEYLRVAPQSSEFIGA
EGFR wildtype (WT), sequence (P00533 25-1210): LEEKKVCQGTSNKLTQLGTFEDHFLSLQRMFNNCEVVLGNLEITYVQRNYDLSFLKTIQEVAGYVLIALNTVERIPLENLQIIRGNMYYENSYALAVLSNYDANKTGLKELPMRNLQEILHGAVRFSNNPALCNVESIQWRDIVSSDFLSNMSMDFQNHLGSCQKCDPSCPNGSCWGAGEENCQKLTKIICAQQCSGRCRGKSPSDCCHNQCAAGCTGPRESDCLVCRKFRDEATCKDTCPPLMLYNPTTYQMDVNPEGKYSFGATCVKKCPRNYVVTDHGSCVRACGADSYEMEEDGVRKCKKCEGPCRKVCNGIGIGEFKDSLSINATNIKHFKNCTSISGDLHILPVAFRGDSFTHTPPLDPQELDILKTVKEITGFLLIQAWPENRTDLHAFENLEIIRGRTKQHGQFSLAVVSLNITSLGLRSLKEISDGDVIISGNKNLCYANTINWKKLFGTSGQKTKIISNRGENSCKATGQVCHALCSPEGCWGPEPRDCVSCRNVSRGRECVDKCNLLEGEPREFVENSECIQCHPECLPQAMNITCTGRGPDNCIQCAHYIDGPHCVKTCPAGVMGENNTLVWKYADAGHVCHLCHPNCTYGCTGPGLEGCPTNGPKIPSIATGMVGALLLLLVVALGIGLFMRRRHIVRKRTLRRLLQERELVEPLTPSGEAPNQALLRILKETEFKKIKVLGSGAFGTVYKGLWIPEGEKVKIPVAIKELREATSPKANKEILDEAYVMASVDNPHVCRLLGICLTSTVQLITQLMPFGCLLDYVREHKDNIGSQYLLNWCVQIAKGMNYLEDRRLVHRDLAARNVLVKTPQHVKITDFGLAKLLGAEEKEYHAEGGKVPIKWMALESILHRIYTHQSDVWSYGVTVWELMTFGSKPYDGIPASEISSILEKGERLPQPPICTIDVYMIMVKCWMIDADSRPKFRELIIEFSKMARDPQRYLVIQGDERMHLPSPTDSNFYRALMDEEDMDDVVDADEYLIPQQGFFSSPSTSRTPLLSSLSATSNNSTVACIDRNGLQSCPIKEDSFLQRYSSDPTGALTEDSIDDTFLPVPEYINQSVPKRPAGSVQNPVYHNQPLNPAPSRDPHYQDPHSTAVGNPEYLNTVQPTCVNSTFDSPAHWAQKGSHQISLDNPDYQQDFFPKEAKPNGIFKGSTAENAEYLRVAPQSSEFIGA
EGFR Del19/C797S, sequence (P00533 with tags, fused parts or gaps DEL746-750/C797S): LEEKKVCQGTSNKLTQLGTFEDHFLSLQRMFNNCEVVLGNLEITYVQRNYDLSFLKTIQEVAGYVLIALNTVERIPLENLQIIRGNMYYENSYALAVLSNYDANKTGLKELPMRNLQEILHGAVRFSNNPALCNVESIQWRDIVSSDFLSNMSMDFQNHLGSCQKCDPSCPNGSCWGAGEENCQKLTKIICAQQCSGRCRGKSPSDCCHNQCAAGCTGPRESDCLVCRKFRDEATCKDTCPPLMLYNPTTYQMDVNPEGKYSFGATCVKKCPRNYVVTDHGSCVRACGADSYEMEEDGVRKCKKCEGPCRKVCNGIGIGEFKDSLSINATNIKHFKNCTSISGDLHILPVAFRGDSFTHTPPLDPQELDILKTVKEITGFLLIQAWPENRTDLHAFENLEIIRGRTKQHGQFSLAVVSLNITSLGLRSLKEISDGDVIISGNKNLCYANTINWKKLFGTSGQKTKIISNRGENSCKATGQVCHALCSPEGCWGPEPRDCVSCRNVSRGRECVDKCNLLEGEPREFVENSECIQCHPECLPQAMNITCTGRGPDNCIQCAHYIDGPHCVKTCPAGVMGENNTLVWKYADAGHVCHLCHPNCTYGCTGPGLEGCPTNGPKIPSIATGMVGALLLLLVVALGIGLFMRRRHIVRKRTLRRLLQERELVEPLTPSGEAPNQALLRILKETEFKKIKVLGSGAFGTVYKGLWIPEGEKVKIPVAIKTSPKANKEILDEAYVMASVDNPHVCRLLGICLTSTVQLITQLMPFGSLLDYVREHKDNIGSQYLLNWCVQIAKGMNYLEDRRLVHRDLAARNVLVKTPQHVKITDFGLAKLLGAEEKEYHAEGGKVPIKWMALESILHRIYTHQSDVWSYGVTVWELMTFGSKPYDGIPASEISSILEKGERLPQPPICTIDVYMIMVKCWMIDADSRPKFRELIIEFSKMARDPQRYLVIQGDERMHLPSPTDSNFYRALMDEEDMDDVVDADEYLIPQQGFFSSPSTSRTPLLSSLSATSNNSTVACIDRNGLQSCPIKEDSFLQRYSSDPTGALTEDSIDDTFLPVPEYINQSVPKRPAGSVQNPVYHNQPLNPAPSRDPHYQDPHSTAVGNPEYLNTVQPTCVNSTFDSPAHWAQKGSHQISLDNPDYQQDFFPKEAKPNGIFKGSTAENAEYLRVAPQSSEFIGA

| SMILES | IC50 [1, 6] [nM] | IC50 [1, 7] [nM] | IC50 [2, 8] [nM] | IC50 [2, 9] [nM] | IC50 [3, 10] [nM] | IC50 [3, 11] [nM] | IC50 [4, 12] [nM] | IC50 [4, 13] [nM] | IC50 ([5]; IC50 WT (nM), 100 μM ATP) [nM] | IC50 [5, 14] [nM] | IC50 [1, 15] [nM] | IC50 [2, 16] [nM] | IC50 [3, 17] [nM] | IC50 [4, 18] [nM] | IC50 [5, 19] [nM] | IC50 [1, 20] [nM] | IC50 [2, 21] [nM] | IC50 [3, 22] [nM] | IC50 [4, 23] [nM] | IC50 [5, 24] [nM] |
| --- | --- | --- | --- | --- | --- | --- | --- | --- | --- | --- | --- | --- | --- | --- | --- | --- | --- | --- | --- | --- |
| Cn1ccc(C#Cc2cnc(Nc3ccnc(-c4cnn(S(=O)(=O)C5CC5)c4)n3)cc2N2CCC(C)(CO)CC2)n1 [Example 107, (1-(2-((2-(1-(Cyclopropylsulfonyl)-1H-pyrazol-4-yl)pyrimidin-4-yl)amino)-5-((1-methyl-1H-pyrazol-3-yl)ethynyl)pyridin-4-yl)-4-methylpiperidin-4-yl)methanol] | 1.2 | 1.2 | 1.3 | 0.6 | 4.6 | 3.2 | 85.6 | 1.9 | > 10000 | 24.1 |  |  |  |  |  |  |  |  |  |  |
| Cn1cc(C#Cc2cnc(Nc3ccnc(-c4cnn(S(=O)(=O)C5CC5)c4)n3)cc2N2CCC(CO)CC2)cn1 [Example 29, (1-(2-((2-(1-(Cyclopropylsulfonyl)-1H-pyrazol-4-yl)pyrimidin-4-yl)amino)-5-((1-methyl-1H-pyrazol-4-yl)ethynyl)pyridin-4-yl)piperidin-4-yl)methanol] | 1.8 |  | 2.3 |  | 2.7 |  | 28.1 |  | 8000 |  |  |  |  |  |  |  |  |  |  |  |
| COC1CCN(c2cc(Nc3ccnc(-c4cnn(S(=O)(=O)C5CC5)c4)n3)ncc2C#Cc2cnn(C)c2)CC1 [Example 15, 2-(1-(Cyclopropylsulfonyl)-1H-pyrazol-4-yl)-N-(4-(4-methoxypiperidin-1-yl)-5-((1-methyl-1H-pyrazol-4-yl)ethynyl)pyridin-2-yl)pyrimidin-4-amine] | 2.6 |  | 1.6 |  | 6.4 |  | 25.5 |  | 661 |  |  |  |  |  |  |  |  |  |  |  |
| CN1CCN(Cc2ccc(C#Cc3cnc(Nc4ccnc(-c5cnn(S(=O)(=O)C6CC6)c5)n4)cc3N3CCC(C)(CO)CC3)cc2)CC1 [Example 164, (1-(2-((2-(1-(Cyclopropylsulfonyl)-1H-pyrazol-4-yl)pyrimidin-4-yl)amino)-5-((4-((4-methylpiperazin-1-yl)methyl)phenyl)ethynyl)pyridin-4-yl)-4-methylpiperidin-4-yl)methanol] | 0.6 |  | 0.5 |  | 1.6 |  | 2.2 |  | 236 |  |  |  |  |  |  | 0.7 | 0.2 | 0.9 | 0.6 | 1.5 |
| CN(C)CCn1cc(C#Cc2cnc(Nc3ccnc(-c4cnn(S(=O)(=O)C5CC5)c4)n3)cc2N2CCCC(CO)C2)cn1 (stereo not drawn) [Example 118, (1-(2-((2-(1-(Cyclopropylsulfonyl)-1H-pyrazol-4-yl)pyrimidin-4-yl)amino)-5-((1-(2-(dimethylamino)ethyl)-1H-pyrazol-4-yl)ethynyl)pyridin-4-yl)piperidin-3-yl)methanol] | 0.6 | 0.5 | 0.5 | 0.2 | 0.8 | 0.7 | 8.5 | 0.6 | 2690 | 10.2 |  |  |  |  |  |  |  |  |  |  |

Now from value to molecule:

| IC50 [1, 6] [nM] | IC50 [1, 7] [nM] | IC50 [2, 8] [nM] | IC50 [2, 9] [nM] | IC50 [3, 10] [nM] | IC50 [3, 11] [nM] | IC50 [4, 12] [nM] | IC50 [4, 13] [nM] | IC50 ([5]; IC50 WT (nM), 100 μM ATP) [nM] | IC50 [5, 14] [nM] | IC50 [1, 15] [nM] | IC50 [2, 16] [nM] | IC50 [3, 17] [nM] | IC50 [4, 18] [nM] | IC50 [5, 19] [nM] | IC50 [1, 20] [nM] | IC50 [2, 21] [nM] | IC50 [3, 22] [nM] | IC50 [4, 23] [nM] | IC50 [5, 24] [nM] | SMILES |
| --- | --- | --- | --- | --- | --- | --- | --- | --- | --- | --- | --- | --- | --- | --- | --- | --- | --- | --- | --- | --- |
| 1 |  | 0.9 |  | 3.8 |  | 107 |  | 7480 |  | 0.6 | 0.3 | 1.3 | 4.3 | 6.9 |  |  |  |  |  | CC1OCCC1C#Cc1cnc(Nc2ccnc(-c3cnn(S(=O)(=O)C4CC4)c3)n2)cc1NC1CCC(CO)CC1 (stereo not drawn) [Example 430, ((1s,4s)-4-((2-((2-(1-(Cyclopropylsulfonyl)-1H-pyrazol-4-yl)pyrimidin-4-yl)amino)-5-((2-methyltetrahydrofuran-3-yl)ethynyl)pyridin-4-yl)amino)cyclohexyl)methanol] |
| 6.6 |  | 19.3 |  | 127 |  | 624 |  | > 10000 |  | 2.7 | 2 | 33.3 | 38.6 | 312 |  |  |  |  |  | CS(=O)(=O)N1CCC(C#Cc2cnc(Nc3ccnc(-c4cnn(S(=O)(=O)C5CC5)c4)n3)cc2NC[C@H]2CC[C@H](CO)CC2)CC1 [Example 388, ((1r,4r)-4-(((2-((2-(1-(Cyclopropylsulfonyl)-1H-pyrazol-4-yl)pyrimidin-4-yl)amino)-5-((1-(methylsulfonyl)piperidin-4-yl)ethynyl)pyridin-4-yl)amino)methyl)cyclohexyl)methanol] |
| 0.2 |  | 0.4 |  | 1.8 |  | 41.6 |  | 9540 |  | 0.2 | 0.1 | 1.6 | 2.5 | 10.8 |  |  |  |  |  | CN1CCC(C#Cc2cnc(Nc3ccnc(-c4cnn(S(=O)(=O)C5CC5)c4)n3)cc2N2CCC3(CCO3)CC2)C1 (stereo not drawn) [Example 373, 2-(1-(Cyclopropylsulfonyl)-1H-pyrazol-4-yl)-N-(5-((1-methylpyrrolidin-3-yl)ethynyl)-4-(1-oxa-7-azaspiro[3.5]nonan-7-yl)pyridin-2-yl)pyrimidin-4-amine] |
| 1.7 |  | 3.6 |  | 10.4 |  | 118 |  | > 10000 |  |  |  |  |  |  | 1 | 0.8 | 4.5 | 12.3 | 62.3 | CC1(CO)CCN(c2cc(Nc3ccnc(-c4cnn(S(=O)(=O)C5CC5)c4)n3)ncc2C#CCC(F)(F)F)CC1 [Example 275, (1-(2-((2-(1-(Cyclopropylsulfonyl)-1H-pyrazol-4-yl)pyrimidin-4-yl)amino)-5-(4,4,4-trifluorobut-1-yn-1-yl)pyridin-4-yl)-4-methylpiperidin-4-yl)methanol] |
| 29.6 |  | 35.1 |  | 37.3 |  | 44.2 |  | > 10000 |  |  |  |  |  |  | 14.7 | 0.3 | 17.2 | 21.3 | 87.7 | O=S(=O)(C1CC1)n1cc(-c2nccc(Nc3cc(NC[C@H]4CC[C@H](O)CC4)c(C#Cc4cnn(C(F)F)c4)cn3)n2)cn1 [Example 307, (1r,4r)-4-(((2-((2-(1-(Cyclopropylsulfonyl)-1H-pyrazol-4-yl)pyrimidin-4-yl)amino)-5-((1-(difluoromethyl)-1H-pyrazol-4-yl)ethynyl)pyridin-4-yl)amino)methyl)cyclohexan-1-ol] |
| 1.6 |  | 2.6 |  | 7.9 |  | 157 |  | > 10000 |  | 1.5 | 0.8 | 7 | 30.7 | 96.1 |  |  |  |  |  | CC1(O)CCN(c2cc(Nc3ccnc(-c4cnn(S(=O)(=O)C5CC5)c4)n3)ncc2C#CC2CCO[C@H]2C(F)(F)F)CC1 (stereo partly drawn) [Example 417, 1-(2-((2-(1-(Cyclopropylsulfonyl)-1H-pyrazol-4-yl)pyrimidin-4-yl)amino)-5-(((2R)-2-(trifluoromethyl)tetrahydrofuran-3-yl)ethynyl)pyridin-4-yl)-4-methylpiperidin-4-ol] |
| 1.2 |  | 3.2 |  | 105 |  | 1770 |  | > 10000 |  |  |  |  |  |  |  |  |  |  |  | O=S(=O)(C1CC1)n1cc(-c2nccc(Nc3cc(NC[C@H]4CC[C@H](O)CC4)c(C#CC4CC5CCC4O5)cn3)n2)cn1 (stereo partly drawn) [Example 423, (1r,4r)-4-(((5-((7-Oxabicyclo[2.2.1]heptan-2-yl)ethynyl)-2-((2-(1-(cyclopropylsulfonyl)-1H-pyrazol-4-yl)pyrimidin-4-yl)amino)pyridin-4-yl)amino)methyl)cyclohexan-1-ol] |
